Some test systems named below: SF-539 CNS; M14 melanoma; SR leukemia; COLO 205 colon; EKVX NSCLC; IGROV1 ovarian; SK-MEL-28 melanoma; UACC-257 melanoma; MDA-MB-231 breast; DU-145 prostate; UACC-62 melanoma; HS 578T breast.
Common to all, as to assay: DTP human tumour cell line panel, 48 h

Several values for one entry are separate records, joined by “and”; a condition that tells them apart may be missing. Identical values can stand only once.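 Grown in 96-well plates, cells were treated for 48 hours with each compound at five concentrations. Insufficient inhibition: endpoint recorded as highest concentration tested. At the GI50, growth is halved. At the TGI there is no net growth.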

As usually defined, the TGI is the concentration giving total growth inhibition. For orientation: GI50 means the concentration that inhibits growth by half.

Turning to `COc1cc(NS(C)(=O)=O)ccc1Nc1c2ccccc2nc2c1[nH]c1ccc(NC3OC(CO)C(O)C(O)C3O)cc12` (centres undefined), the TGI is 0.0405 µM in the assay on SF-539 CNS; 0.971 µM in the assay on M14 melanoma; above 100 µM with SR leukemia; 2.76 µM in the assay on COLO 205 colon; 4.98 µM in the assay on EKVX NSCLC; 3.47 µM in the assay on IGROV1 ovarian. Further, the TGI came to 1.96 µM in the assay with SK-MEL-28 melanoma; 11 µM in the assay on UACC-257 melanoma; 8.11 µM in the assay on MDA-MB-231 breast; 0.245 µM with DU-145 prostate; 1.08 µM in the assay on UACC-62 melanoma; 4.29 µM in the assay with HS 578T breast.
Regarding `O=Cc1[nH]c(=O)[nH]c(=O)c1C(=O)O`, the TGI in the assay on SF-539 CNS, in the assay on M14 melanoma, in the assay on SR leukemia, in the assay on COLO 205 colon, in the assay with EKVX NSCLC and in the assay on IGROV1 ovarian was above 100 µM each time. Also, the TGI with SK-MEL-28 melanoma, in the assay with UACC-257 melanoma, in the assay on MDA-MB-231 breast, in the assay with DU-145 prostate, with UACC-62 melanoma and in the assay on HS 578T breast was above 100 µM throughout.
As for `CN1C2CCC1CC(=CCOC(c1ccc(F)cc1)c1ccc(F)cc1)C2`, the TGI was determined as 31.9 µM in the assay on SF-539 CNS; 31.9 µM in the assay on M14 melanoma; 37.3 µM in the assay with SR leukemia; 30.5 µM in the assay on COLO 205 colon; 40.8 µM with EKVX NSCLC; 30.1 µM in the assay on IGROV1 ovarian. The TGI in the assay with SK-MEL-28 melanoma was 47.9 µM; in the assay with UACC-257 melanoma, 31.7 µM; in the assay with MDA-MB-231 breast, 37.1 µM; in the assay on DU-145 prostate it was 30.5 µM; in the assay on UACC-62 melanoma, 29.5 µM; in the assay on HS 578T breast, 27.5 µM.
As for `Oc1[nH]c2ccccc2c1N=NC(=S)Nc1cccc(Cl)c1`, the TGI in the assay on SF-539 CNS is 22.4 µM; with M14 melanoma it was 24.7 µM; in the assay with SR leukemia it was 9.71 µM; in the assay with COLO 205 colon, above 100 µM; with EKVX NSCLC it was above 100 µM; in the assay with IGROV1 ovarian, 89 µM. Also, the TGI in the assay on SK-MEL-28 melanoma was above 100 µM; in the assay with UACC-257 melanoma it was 75.5 µM; in the assay with MDA-MB-231 breast, 52.3 µM; with DU-145 prostate, above 100 µM; with UACC-62 melanoma it was 29 µM; in the assay with HS 578T breast, above 100 µM.
Take `CCOC(=O)C12OC(CCC1=O)C(C(=O)OC)=C2C(=O)OC` (centres undefined): the TGI with SF-539 CNS, in the assay with M14 melanoma, in the assay on SR leukemia, in the assay with COLO 205 colon, in the assay on EKVX NSCLC and in the assay with IGROV1 ovarian was above 10 µM each time. Besides, the TGI in the assay with SK-MEL-28 melanoma, with UACC-257 melanoma, in the assay with MDA-MB-231 breast, in the assay on DU-145 prostate, in the assay with UACC-62 melanoma and in the assay on HS 578T breast was above 10 µM throughout.
As for `CC(CO)(CO)N1C(=O)C2C3C=CC(C3)C2C1=O` (centres undefined), the TGI in the assay with SF-539 CNS, with M14 melanoma, in the assay with SR leukemia, with COLO 205 colon, in the assay on EKVX NSCLC and in the assay on IGROV1 ovarian was above 100 µM throughout. Moreover, the TGI in the assay with SK-MEL-28 melanoma, in the assay on UACC-257 melanoma, in the assay with MDA-MB-231 breast, in the assay on DU-145 prostate, in the assay with UACC-62 melanoma and in the assay with HS 578T breast was above 100 µM in each case.
As for `O=C(Oc1ccccn1)c1cc2cc(CCl)ccc2oc1=O`, the TGI with SF-539 CNS, with M14 melanoma, in the assay on SR leukemia, in the assay on COLO 205 colon, in the assay with EKVX NSCLC and in the assay with IGROV1 ovarian was above 100 µM throughout. Besides, the TGI in the assay with SK-MEL-28 melanoma is above 100 µM; in the assay with UACC-257 melanoma it was above 100 µM; in the assay with MDA-MB-231 breast, 46.6 µM; in the assay with DU-145 prostate it was above 100 µM; in the assay with UACC-62 melanoma it was 85.6 µM; in the assay on HS 578T breast, 59.6 µM.
In the case of `NC(=O)C(C(N)=O)=C(O)C(=O)/C=C(\O)c1ccccc1`, the TGI in the assay on SF-539 CNS was above 100 µM; in the assay on M14 melanoma, above 100 µM; in the assay with SR leukemia, 13.9 µM; in the assay on COLO 205 colon, above 100 µM; in the assay with EKVX NSCLC, above 100 µM; in the assay with IGROV1 ovarian it was above 100 µM. Besides, the TGI with SK-MEL-28 melanoma, in the assay with UACC-257 melanoma, in the assay on MDA-MB-231 breast, in the assay with DU-145 prostate, in the assay on UACC-62 melanoma and with HS 578T breast was above 100 µM throughout.
In the case of `OC1C#CCSCC#C/C=C\1` (centres undefined), the TGI with SF-539 CNS is above 100 µM; with M14 melanoma, above 100 µM; in the assay on SR leukemia, above 100 µM; with COLO 205 colon, 29.3 µM; in the assay with EKVX NSCLC, above 100 µM; in the assay on IGROV1 ovarian it was above 100 µM. The TGI in the assay on SK-MEL-28 melanoma, in the assay with UACC-257 melanoma, with MDA-MB-231 breast, in the assay on DU-145 prostate, with UACC-62 melanoma and in the assay with HS 578T breast was above 100 µM each time.
As for `CCOC1OC(=O)c2cc3ccc4c(c3c(-c3ccc5c(c3)OCO5)c21)OCO4` (centres undefined), the TGI with SF-539 CNS is 20.4 µM; with M14 melanoma, 79.3 µM; in the assay on SR leukemia it was 5.43 µM; in the assay with COLO 205 colon, 5.16 µM; with EKVX NSCLC it was above 100 µM; in the assay with IGROV1 ovarian, above 100 µM. Moreover, the TGI in the assay on SK-MEL-28 melanoma was above 100 µM; in the assay with UACC-257 melanoma, above 84.5 µM; with MDA-MB-231 breast, above 100 µM; in the assay with DU-145 prostate, above 100 µM; with UACC-62 melanoma, above 59.2 µM; with HS 578T breast it was above 39.6 µM.
`CCCCCCc1cc2cc(C(=O)Nc3ccccc3)c(=N)oc2cc1O`: the TGI with SF-539 CNS is above 48.6 µM; in the assay with M14 melanoma, above 29.4 µM; in the assay with SR leukemia, above 26.3 µM; in the assay on COLO 205 colon it was above 100 µM; in the assay on EKVX NSCLC, above 100 µM; in the assay with IGROV1 ovarian, above 100 µM. The TGI was above 100 µM in the assay with SK-MEL-28 melanoma; above 100 µM in the assay on UACC-257 melanoma; above 100 µM in the assay on MDA-MB-231 breast; above 100 µM in the assay with DU-145 prostate; 40.1 µM with UACC-62 melanoma; 20 µM with HS 578T breast.
For the molecule `Nc1nc(SC/C=C/c2ccccc2)c2[nH]cnc2n1`, the TGI with SF-539 CNS, in the assay on M14 melanoma, with SR leukemia, in the assay with COLO 205 colon, in the assay on EKVX NSCLC and in the assay with IGROV1 ovarian was above 100 µM throughout. Besides, the TGI is above 100 µM in the assay on SK-MEL-28 melanoma; above 100 µM in the assay on UACC-257 melanoma; above 100 µM in the assay with MDA-MB-231 breast; above 100 µM in the assay with DU-145 prostate; above 100 µM with UACC-62 melanoma; 88.8 µM in the assay with HS 578T breast.
`O=[N+]([O-])/C(C(Cl)=C(Cl)Cl)=C(/Cl)Sc1ccccc1`: the TGI was 3.78 µM in the assay on SF-539 CNS; 3.24 µM in the assay with M14 melanoma; 2.38 µM in the assay with SR leukemia; 2.75 µM in the assay with COLO 205 colon; 33.4 µM with EKVX NSCLC; 4.69 µM in the assay with IGROV1 ovarian. Further, the TGI in the assay with SK-MEL-28 melanoma came out at 3.28 µM; in the assay with UACC-257 melanoma, 2.55 µM; in the assay on MDA-MB-231 breast, 3.4 µM; in the assay on DU-145 prostate it was 11.2 µM; with UACC-62 melanoma it was 3.36 µM; in the assay with HS 578T breast it was 7.14 µM.
Regarding `C/C=C(/C)C(=O)O[C@@H]1CCN2CC[C@H](COC(=O)/C(=C/C)CO)C12` (some centres undefined), the TGI with SF-539 CNS is above 100 µM; in the assay on M14 melanoma, 36.3 µM; in the assay with SR leukemia, above 100 µM; with COLO 205 colon it was 42.7 µM; with EKVX NSCLC it was above 100 µM; in the assay on IGROV1 ovarian, above 100 µM. The TGI in the assay with SK-MEL-28 melanoma is above 100 µM; with UACC-257 melanoma, 99.7 µM; in the assay with MDA-MB-231 breast, above 100 µM; in the assay on DU-145 prostate, above 100 µM; with UACC-62 melanoma, above 100 µM; in the assay with HS 578T breast it was above 93.4 µM.
As to `Cn1cc(NC(=O)Nc2cc(C(=O)Nc3cc(C(=O)Nc4ccc(S(=O)(=O)O)c5cc(S(=O)(=O)O)ccc45)n(C)c3)n(C)c2)cc1C(=O)Nc1cc(C(=O)Nc2ccc(S(=O)(=O)O)c3cc(S(=O)(=O)O)ccc23)n(C)c1`, the TGI in the assay on SF-539 CNS, in the assay on M14 melanoma, in the assay on SR leukemia, in the assay on COLO 205 colon, with EKVX NSCLC and with IGROV1 ovarian was above 100 µM each time. Further, the TGI in the assay with SK-MEL-28 melanoma, in the assay with UACC-257 melanoma, with MDA-MB-231 breast, with DU-145 prostate, in the assay on UACC-62 melanoma and with HS 578T breast was above 100 µM in each case.
For `CN(C)CCCN1CCC2(CCC(C(C)(C)C)CC2)CC1`, the TGI in the assay on SF-539 CNS amounted to 3.89 µM; with M14 melanoma, 3.46 µM; in the assay with SR leukemia, 4.85 µM; in the assay with COLO 205 colon, 3.04 µM; with EKVX NSCLC, 19.4 µM; in the assay with IGROV1 ovarian, 9.03 µM. The TGI in the assay on SK-MEL-28 melanoma amounted to 3.36 µM; in the assay with UACC-257 melanoma, 2.76 µM; in the assay on MDA-MB-231 breast, 3.91 µM; with DU-145 prostate, 19.3 µM; in the assay on UACC-62 melanoma, 3.33 µM; with HS 578T breast it was 4.89 µM.
Regarding `O=c1cc(-c2cccc3ccccc23)[nH]c2ncccc12`, the GI50 is 0.0159 µM in the assay with SF-539 CNS; 0.0275 µM in the assay with M14 melanoma; 0.0239 µM with EKVX NSCLC; 0.0417 µM in the assay on IGROV1 ovarian; 0.0158 µM with SK-MEL-28 melanoma; 0.0479 µM in the assay with MDA-MB-231 breast. Moreover, the GI50 in the assay with HS 578T breast is 0.0186 µM. The TGI in the assay on M14 melanoma is above 100 µM; in the assay with SR leukemia, above 100 µM; with COLO 205 colon, 0.0587 µM and 0.136 µM; in the assay on EKVX NSCLC it was above 100 µM; with IGROV1 ovarian it was above 100 µM; in the assay with SK-MEL-28 melanoma it was above 100 µM. For the same molecule, the TGI in the assay with MDA-MB-231 breast, with DU-145 prostate, with UACC-62 melanoma and with HS 578T breast was above 100 µM in each case.

Source of the values: PubChem BioAssay (NCI).
